What is called viability is the share of living cells, or the viability signal relative to a control. Higher therefore signals less harm to the cells. By IC50 is commonly meant the concentration needed to halve the response being measured.

This assay has as its system BT474 cells. Nature of the assay: SRB cell viability assay, Herceptin-sensitive BT474 cells. To be noted: for mean A at 565 nm: 72 h, background = 0.046. The assay is classed as cell-based, human. As for the experimental part:
Cell culture of the above cell lines was performed as described in Example 2, except that 5,000, rather than 3,000 cells were plated per well for the K562, K562/Dox, BT474, SkBr3 lines.
Table 17 also contains the serially-diluted concentrations of drugs that each cell line was tested against.

Several values for one entry are separate records, joined by “and”; a condition that tells them apart may be missing. Equal entries are not always repeated.

On to `CS(=O)(=O)CCNCc1ccc(-c2ccc3ncnc(Nc4ccc(OCc5cccc(F)c5)c(Cl)c4)c3c2)o1` [lapatinib], for which, under “Homo sapiens, BT-474, 72 h”, the viability at 0.001 µM worked out at 100%, the viability at 0.05 µM is 65.7%, the viability at 0.167 µM was found to be 52.1% and the viability at 0.5 µM was found to be 26.9%. Where the note is “Homo sapiens, BT-474, 72 h”, this compound yielded a viability at 1.67 µM of 21.1%, a viability at 5 µM of 14.1%, a viability at 16.7 µM of 8% and a viability at 50 µM of 2.3%. Also, the IC50 (Homo sapiens, BT-474, read-out: IC50 of drug when cells treated with drug only) is 116 nM and 0.067 µg/mL. For the same compound, the “mean A at 565 nm” value (Lapatinib 0.001 μM) is on record as 1.688. Besides, under “Lapatinib 0.167 μM”, the “mean A at 565 nm” value was 0.880. The “mean A at 565 nm” value (Lapatinib 0.5 μM) is 0.453. Also, the “mean A at 565 nm” value (Lapatinib 5 μM) amounted to 0.238. Moreover, the “mean A at 565 nm” value (Lapatinib 16.7 μM) was 0.136. Besides, the “mean A at 565 nm” value (Lapatinib 50 μM) is reported as 0.038.

The record behind these values is US10149876B2, “Tripterygium wilfordii extracts to overcome chemotherapy resistance” (WESTERN UNIVERSITY OF HEALTH SCIENCES, priority 2012, dated 2018).
